The text below walks through data of US20220119355A1, “SATURATED-RING-FUSED DIHYDROPYRIMIDINONE OR DIHYDROTRIAZINONE COMPOUNDS AND PHARMACEUTICAL USE THEREOF” (Japan Tobacco Inc., priority 2018, published 2022).

In assay [1] the target is T1, mouse RORγ (Mus musculus, UniProt P51450).
T1 construct: from Ile251 to Lys516 for mouse RORγ; expressed in transfected cells; host or cells: CHO cells (transient co-transfection with pG5-Luc)
T1 sequence (P51450 251-516): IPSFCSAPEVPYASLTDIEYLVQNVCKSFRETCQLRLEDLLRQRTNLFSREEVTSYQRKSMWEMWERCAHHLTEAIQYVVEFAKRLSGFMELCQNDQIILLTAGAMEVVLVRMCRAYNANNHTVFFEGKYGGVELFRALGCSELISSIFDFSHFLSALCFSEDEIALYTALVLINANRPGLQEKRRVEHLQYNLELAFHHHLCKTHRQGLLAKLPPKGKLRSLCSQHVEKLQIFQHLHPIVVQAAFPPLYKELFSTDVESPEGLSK
Kind of assay: In-vitro reporter gene assay for inhibitory activity against RORγ transcription, Test Method B (pFA/mRORγ LBD / pG5-Luc in CHO cells). Type of assay: cell-based. Conditions: luciferase reporter, CHO cells, 2 days. As to the method:
(§1) In-Vitro Assay for Inhibitory Activity Against RORγ Transcription
(§2) Inhibitory activity against RORγ transcription was assessed for test compounds by either of the following Test Method A or B of reporter gene assay.
(§3) cDNAs encoding human and mouse RORγ ligand binding domains (LBD) were obtained based on the sequences of human RORγ (Genbank registered number NM_005060.3) and mouse RORγ (Genbank registered number NM_011281.2) (LBD sequences: from Ser253 to Lys518 for human RORγ; from Ile251 to Lys516 for mouse RORγ).
(§4) LBD cDNAs of human and mouse RORγ were inserted into pFA-CMV vector (Agilent Technologies, Inc.), which expresses GAL4-DNA binding domain fusion protein. The resulting plasmids are hereinafter referred to as pFA/hRORγ plasmid and pFA/mRORγ plasmid, respectively.
(§5) pFA/hRORγ plasmid or pFA/mRORγ plasmid was transiently co-transfected into Chinese hamster ovary cells (CHO cells) with pG5-Luc (Promega), reporter plasmid expressing firefly luciferase in a GAL4-dependent manner.
(§6) TransIT (Registered trademark) CHO Transfection Kit (Mirus) was used to co-transfect CHO cells with the plasmids. One day prior to the assay, CHO cells were suspended in HAM F-12 Nutrient medium containing 10% (v/v) fetal bovine serum and seeded at 5.5×10^6 cells per 225 cm^2 cell culture flask each. 72 μL of TransIT (Registered trademark) CHO reagent was added into a 2 mL tube containing 1.55 mL of Opti-MEM, and then mixed and incubated at room temperature for 10 minutes. 50.4 μL of a plasmid solution containing 300 ng of pFA/hRORγ plasmid, 12000 ng of pG5-Luc plasmid, and 11700 ng of pcDNA3.1 plasmid were added into the tube and mixed gently. In the case of mouse assay, a plasmid solution containing 300 ng of pFA/mRORγ plasmid, 12000 ng of pG5-Luc plasmid, and 11700 ng of pcDNA3.1 plasmid was added, instead. The mixture was incubated at room temperature for 10 minutes. 12 μL each of CHO Mojo Reagent were then added into each tube and mixed gently. The mixture was incubated at room temperature for 10 minutes. The resulting transfection reagent was applied to the cell culture. After incubation at 37° C., 5% CO2 for 4 hours, the plasmid-transfected CHO cells were harvested by trypsin treatment. The collected cells were resuspended in culture medium and plated into a 384-well-white plate at 8,000 cells/35 μL/well. The plate was let stand at room temperature for 1 hour and then further incubated at 37° C., 5% CO2 for 3 hours. A test compound was dissolved in dimethyl sulfoxide (DMSO) to obtain a concentration of 10 mM. Each solution was serially diluted with DMSO and further diluted with culture medium just before use. The test compound solutions were added to the cells in the plate at 6 different concentrations. The final concentration of DMSO was 0.2% (v/v). After the addition of test compound, the cells were incubated at 37° C., 5% CO2 for 2 days.
(§7) RORγ transcriptional activity was detected as the intracellular luciferase activity using SteadyLite HTS Reporter Gene Assay System (Perkin Elmer). SteadyLite Reagent was diluted 2.5-fold with Extension buffer (10 mM Tricine, 0.2% (w/v) bovine serum albumin, 0.02% (v/v) Tween-20) to obtain a luciferase substrate solution. Two days after the addition of test compound, 40 μL each of the luciferase substrate solution was added into the 384-well-plate. After the incubation at room temperature for 10 minutes, luminescence of each well was measured with a microplate reader. The luciferase activity derived from the luminescence count in a vehicle-control well treated with 0.2% DMSO alone was defined as 100%, and the luciferase activity after treatment of the test compound was calculated as a percentage, %-of-control, based on the value of the vehicle-control. An EC50 value of the test compound was calculated by curve fitting. The luminescence counts at the concentration of test compound where cytotoxicity was observed were excluded from data analysis. […]

For assay [2], the target named is T2, human RORγ (Homo sapiens, UniProt P51449).
T2 construct: from Ser253 to Lys518 for human RORγ; expressed in transfected cells; host or cells: CHO cells (transient co-transfection with pG5-Luc)
T2 sequence (P51449 253-518): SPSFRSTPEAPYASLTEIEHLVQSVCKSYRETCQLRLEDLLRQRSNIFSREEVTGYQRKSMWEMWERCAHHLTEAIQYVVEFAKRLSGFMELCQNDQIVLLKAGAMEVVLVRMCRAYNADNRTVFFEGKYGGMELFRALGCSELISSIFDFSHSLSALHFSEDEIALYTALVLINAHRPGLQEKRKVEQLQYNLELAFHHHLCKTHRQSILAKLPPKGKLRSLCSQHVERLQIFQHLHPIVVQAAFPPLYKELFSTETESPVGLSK
The experiment in a line: In-vitro reporter gene assay for inhibitory activity against RORγ transcription, Test Method B (pFA/hRORγ LBD / pG5-Luc in CHO cells). Type of assay: cell-based. Conditions: luciferase reporter, CHO cells, 2 days. As to the method:
as §1, §2, §3, §4, §5, §6, §7
For orientation: A reporter such as luciferase makes a cellular process visible.

For assay [3] the following is noted: Non Patent Literature 33; cited from earlier work.

The EC50 is the concentration needed to bring the measured effect to its halfway point. A low value points to a more potent agent. Turning to `CC1(C)CC(COc2ccc(C34CCCCC3=CN(CCC(=O)O)C(=O)N4)cc2Cl)C1` (racemic) [Example 100], the figures for the EC50 in assay [1] and in assay [2] were 0.055 µM and 0.206 µM, respectively.

As to `CC1C2=CN(C34CC(C(=O)O)(C3)C4)C(=O)N[C@]2(c2ccc(CCC(C)(C)C)c(Cl)c2)COC1(C)C` (single isomer, unassigned) [Example 110], the values for the EC50 in assay [1] and in assay [2] were 0.012 µM and 0.01 µM, respectively.

As for `C[C@H]1CCC2(c3ccc(CCC(C)(C)C)c(Cl)c3)NC(=O)N(C34CC(C(=O)O)(C3)C4)C=C2[C@@H]1C` (single isomer, unassigned) [Example 107], the results for the EC50 in assay [1] and in assay [2] were 0.032 µM and 0.027 µM, respectively.

As for `CCS(=O)(=O)c1ccc(CC(=O)Nc2cc(Cl)c(-c3ccccc3OC(F)(F)F)c(Cl)c2)cc1` [GSK805], in assay [3], the “bone loss in experimental periodontitis model” value is recorded as “diminished bone loss”.

For the molecule `CC1C2=CN(C34CC(C(=O)O)(C3)C4)C(=O)N[C@@]2(c2ccc(CCC(C)(C)C)c(Cl)c2)COC1(C)C` (single isomer, unassigned) [Example 108], the EC50 in assay [1] turned out to be 5.05 µM; in assay [2], 4.69 µM.

`CC1CC[C@@]2(c3ccc(CCC(C)(C)C)c(Cl)c3)NC(=O)N(C34CC(C(=O)O)(C3)C4)C=C2C1` (single isomer, unassigned) [Example 90]: the figures for the EC50 in assay [1] and in assay [2] were 0.023 µM and 0.022 µM, respectively.

Consider `CC1CC[C@@]2(c3ccc(CCC(C)(C)C)c(Cl)c3)NC(=O)N(C34CC(C(=O)O)(C3)C4)C=C2C1` (single isomer, unassigned) [Example 92], for which the values for the EC50 in assay [1] and in assay [2] were 0.019 µM and 0.042 µM, respectively.

Turning to `CCC1CC[C@]2(c3ccc(CCC(C)(C)C)c(Cl)c3)NC(=O)N(C34CC(C(=O)O)(C3)C4)C=C2C1` (single isomer, unassigned) [Example 93], the EC50 in assay [1] is 4.23 µM; in assay [2], 3.97 µM.

With `CC(C)C1CC[C@]2(c3ccc(CCC(C)(C)C)c(Cl)c3)NC(=O)N(C34CC(C(=O)O)(C3)C4)C=C2C1` (single isomer, unassigned) [Example 98], the results for the EC50 in assay [1] and in assay [2] were 5.11 µM and 4.36 µM, respectively.

Take `CC1(C)CC1COc1ccc(C23CCCCC2=CN(CCC(=O)O)C(=O)N3)cc1Cl` (racemic) [Example 88]: the values for the EC50 in assay [1] and in assay [2] were 0.169 µM and 0.751 µM, respectively.

Take `CCC1CC[C@@]2(c3ccc(CCC(C)(C)C)c(Cl)c3)NC(=O)N(C34CC(C(=O)O)(C3)C4)C=C2C1` (single isomer, unassigned) [Example 94]: the EC50 was 0.082 µM in assay [1] and 0.046 µM in assay [2].

Regarding `CC1C2=CN(C34CC(C(=O)O)(C3)C4)C(=O)NC2(c2ccc(CCC(C)(C)C)c(Cl)c2)CC1(C)C` (single isomer, unassigned) [Example 35], the EC50 was determined as 4.97 µM in assay [1] and 4.19 µM in assay [2].

Consider `C[C@H]1CCC2(c3ccc(C4C(C(C)(C)C)C4(F)F)c(Cl)c3)NC(=O)N(C34CCC(C(=O)O)(C3)C4)C=C2[C@@H]1C` (single isomer, unassigned) [Example 115], for which the EC50 in assay [1] was found to be 0.049 µM; in assay [2], 0.031 µM.
